Test results from paper PMC3914206.

Experiments:
Format in all cases: binding
Conditions in all cases: Compound Concentration 10 µM
[1] = target: T1, panel of 442 kinases (Homo sapiens, UniProt O75582)
T1 construct: purchased KINOMEscan
Description: (§1) We assessed the selectivity of members of this scaffold using the KINOMEscan methodology across a near comprehensive panel of 442 kinases [[18,27]].

[2] = target: T2, panel of 442 kinases (Homo sapiens, UniProt P04049)
T2 construct: purchased KINOMEscan
Description: as §1

[3] = target: T3, panel of 442 kinases (Homo sapiens, UniProt P08581, M1250T)
T3 construct: purchased KINOMEscan
Description: as §1

[4] = target: T4, panel of 442 kinases (Homo sapiens, UniProt Q86Z02)
T4 construct: purchased KINOMEscan
Description: as §1

T4 sequence (Q86Z02 whole entry): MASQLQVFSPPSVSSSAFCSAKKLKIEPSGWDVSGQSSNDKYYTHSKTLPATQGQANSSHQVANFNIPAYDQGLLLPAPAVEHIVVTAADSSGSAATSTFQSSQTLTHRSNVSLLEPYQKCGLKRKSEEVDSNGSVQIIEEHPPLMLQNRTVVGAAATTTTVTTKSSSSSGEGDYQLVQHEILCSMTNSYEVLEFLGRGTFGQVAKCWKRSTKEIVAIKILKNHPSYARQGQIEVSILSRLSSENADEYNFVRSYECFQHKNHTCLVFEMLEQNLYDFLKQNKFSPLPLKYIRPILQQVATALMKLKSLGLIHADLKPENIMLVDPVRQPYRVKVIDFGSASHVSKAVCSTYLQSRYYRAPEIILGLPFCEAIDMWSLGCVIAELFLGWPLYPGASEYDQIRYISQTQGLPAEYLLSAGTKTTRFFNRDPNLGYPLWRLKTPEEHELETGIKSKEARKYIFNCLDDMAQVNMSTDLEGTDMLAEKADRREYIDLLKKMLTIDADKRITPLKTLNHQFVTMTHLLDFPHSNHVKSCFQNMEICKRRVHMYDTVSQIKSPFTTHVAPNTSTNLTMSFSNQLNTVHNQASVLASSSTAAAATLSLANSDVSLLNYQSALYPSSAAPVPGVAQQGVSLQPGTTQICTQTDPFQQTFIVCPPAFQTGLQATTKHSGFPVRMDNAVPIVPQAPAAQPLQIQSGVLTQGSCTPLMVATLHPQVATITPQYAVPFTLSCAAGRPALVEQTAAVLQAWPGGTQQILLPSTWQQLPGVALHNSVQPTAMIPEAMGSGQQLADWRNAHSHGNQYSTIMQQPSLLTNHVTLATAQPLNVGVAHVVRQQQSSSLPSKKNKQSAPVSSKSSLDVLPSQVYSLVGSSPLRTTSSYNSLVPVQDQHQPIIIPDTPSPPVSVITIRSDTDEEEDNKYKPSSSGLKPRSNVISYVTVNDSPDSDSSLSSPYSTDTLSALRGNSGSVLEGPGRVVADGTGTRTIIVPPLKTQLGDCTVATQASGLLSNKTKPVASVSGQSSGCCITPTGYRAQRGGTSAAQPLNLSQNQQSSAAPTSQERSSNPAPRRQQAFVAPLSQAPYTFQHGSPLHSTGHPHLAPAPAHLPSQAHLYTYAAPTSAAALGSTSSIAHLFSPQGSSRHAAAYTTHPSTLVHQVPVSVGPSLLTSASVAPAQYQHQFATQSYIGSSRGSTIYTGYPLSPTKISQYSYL
T1 sequence (O75582 whole entry): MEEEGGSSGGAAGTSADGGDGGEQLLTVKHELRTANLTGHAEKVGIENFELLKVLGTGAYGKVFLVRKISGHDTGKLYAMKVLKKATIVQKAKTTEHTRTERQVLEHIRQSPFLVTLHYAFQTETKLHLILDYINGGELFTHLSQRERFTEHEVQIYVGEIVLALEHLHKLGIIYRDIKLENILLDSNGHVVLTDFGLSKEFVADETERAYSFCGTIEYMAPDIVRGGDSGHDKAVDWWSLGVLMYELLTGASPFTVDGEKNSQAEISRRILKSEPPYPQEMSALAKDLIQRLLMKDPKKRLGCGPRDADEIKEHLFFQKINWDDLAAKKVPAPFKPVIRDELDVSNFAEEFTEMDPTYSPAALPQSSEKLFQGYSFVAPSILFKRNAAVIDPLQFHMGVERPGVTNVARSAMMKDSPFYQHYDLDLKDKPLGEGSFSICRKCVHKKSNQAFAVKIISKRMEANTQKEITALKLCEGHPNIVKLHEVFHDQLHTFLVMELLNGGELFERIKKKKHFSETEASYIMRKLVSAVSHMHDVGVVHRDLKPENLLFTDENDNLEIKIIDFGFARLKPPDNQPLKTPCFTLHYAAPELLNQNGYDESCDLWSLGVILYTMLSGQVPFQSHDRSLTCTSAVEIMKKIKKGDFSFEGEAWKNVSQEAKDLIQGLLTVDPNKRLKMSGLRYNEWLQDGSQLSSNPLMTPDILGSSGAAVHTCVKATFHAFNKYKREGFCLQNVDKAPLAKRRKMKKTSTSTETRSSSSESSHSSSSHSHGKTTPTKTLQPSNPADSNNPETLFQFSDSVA
T3 sequence (P08581 25-1390 M1250T): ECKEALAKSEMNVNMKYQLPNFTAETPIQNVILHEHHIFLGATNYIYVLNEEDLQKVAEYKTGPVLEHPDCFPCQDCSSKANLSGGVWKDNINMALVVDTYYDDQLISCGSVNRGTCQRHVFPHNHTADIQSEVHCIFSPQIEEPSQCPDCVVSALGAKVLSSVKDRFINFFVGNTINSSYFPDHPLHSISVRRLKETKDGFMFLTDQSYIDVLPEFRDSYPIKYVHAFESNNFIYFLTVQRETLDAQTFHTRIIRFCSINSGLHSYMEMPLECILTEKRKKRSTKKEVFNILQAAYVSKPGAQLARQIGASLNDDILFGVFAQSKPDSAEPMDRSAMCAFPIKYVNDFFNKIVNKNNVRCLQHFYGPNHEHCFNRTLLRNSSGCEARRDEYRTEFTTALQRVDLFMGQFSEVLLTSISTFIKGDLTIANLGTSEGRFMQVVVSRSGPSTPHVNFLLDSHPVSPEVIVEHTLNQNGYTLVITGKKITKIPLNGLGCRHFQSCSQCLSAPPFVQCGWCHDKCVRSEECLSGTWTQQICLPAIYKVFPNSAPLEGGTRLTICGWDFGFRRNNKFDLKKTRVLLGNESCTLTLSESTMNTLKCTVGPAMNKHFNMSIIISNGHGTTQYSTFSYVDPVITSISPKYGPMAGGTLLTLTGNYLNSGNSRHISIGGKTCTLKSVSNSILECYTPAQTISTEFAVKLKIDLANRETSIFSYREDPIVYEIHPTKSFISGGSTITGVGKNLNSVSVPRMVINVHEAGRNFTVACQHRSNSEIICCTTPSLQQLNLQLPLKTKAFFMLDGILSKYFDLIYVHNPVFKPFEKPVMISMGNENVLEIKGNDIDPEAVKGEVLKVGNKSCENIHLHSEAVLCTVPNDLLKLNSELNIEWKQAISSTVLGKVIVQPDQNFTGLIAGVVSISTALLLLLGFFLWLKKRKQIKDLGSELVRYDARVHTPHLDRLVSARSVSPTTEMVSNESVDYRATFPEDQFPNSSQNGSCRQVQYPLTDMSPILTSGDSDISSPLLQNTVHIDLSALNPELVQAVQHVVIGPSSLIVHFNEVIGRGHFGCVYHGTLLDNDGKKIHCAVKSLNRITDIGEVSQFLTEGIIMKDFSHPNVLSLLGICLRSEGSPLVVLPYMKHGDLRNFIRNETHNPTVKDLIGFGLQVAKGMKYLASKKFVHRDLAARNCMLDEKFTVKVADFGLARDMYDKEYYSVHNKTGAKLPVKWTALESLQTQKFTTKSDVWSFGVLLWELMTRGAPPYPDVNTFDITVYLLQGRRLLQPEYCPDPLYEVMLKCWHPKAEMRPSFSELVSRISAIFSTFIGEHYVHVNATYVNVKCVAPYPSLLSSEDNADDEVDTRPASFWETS
T2 sequence (P04049 whole entry): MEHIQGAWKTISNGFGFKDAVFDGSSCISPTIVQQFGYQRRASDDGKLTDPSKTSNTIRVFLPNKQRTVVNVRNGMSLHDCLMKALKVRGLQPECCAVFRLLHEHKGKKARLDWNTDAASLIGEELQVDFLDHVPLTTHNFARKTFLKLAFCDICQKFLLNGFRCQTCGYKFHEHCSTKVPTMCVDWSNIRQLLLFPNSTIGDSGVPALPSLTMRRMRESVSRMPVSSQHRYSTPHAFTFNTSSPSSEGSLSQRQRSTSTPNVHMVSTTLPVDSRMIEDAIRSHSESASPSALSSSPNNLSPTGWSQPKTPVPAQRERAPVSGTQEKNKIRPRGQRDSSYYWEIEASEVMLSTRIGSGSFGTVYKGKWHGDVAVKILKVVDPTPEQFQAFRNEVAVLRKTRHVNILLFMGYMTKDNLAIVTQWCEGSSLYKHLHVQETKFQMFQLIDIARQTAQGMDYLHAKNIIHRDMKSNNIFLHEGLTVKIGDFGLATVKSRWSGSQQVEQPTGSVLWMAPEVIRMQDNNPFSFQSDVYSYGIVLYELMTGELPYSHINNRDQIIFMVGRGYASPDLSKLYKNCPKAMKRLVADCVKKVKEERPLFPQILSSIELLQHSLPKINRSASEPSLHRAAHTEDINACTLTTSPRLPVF

Row | Structure (SMILES) | KINOMEscan: RPS6KA5(Kin.Dom.1-N-terminal) [1] | KINOMEscan: RPS6KA5(Kin.Dom.2-C-terminal) [1] | KINOMEscan: RAF1 [2] | KINOMEscan: MET(M1250T) [3] | KINOMEscan: HIPK1 [4]
1 | COc1cc(C(=O)N2CCC(N3CCN(C)CC3)CC2)ccc1Nc1ncc2c(n1)N(C)c1ccccc1C(=O)N2C [15 (LRRK2-IN-1)] | 96 | 92 | 100 | 96 | 100
2 | COc1cc(C(=O)N2CCC(N3CCN(C)CC3)CC2)ccc1Nc1ncc2c(n1)N1CCc3cccc(c31)C(=O)N2C [Compound 24] |  | 43 |  | 88 | 52
3 | COc1cc(C(=O)N2CCC(N3CCN(C)CC3)CC2)ccc1Nc1ncc2c(n1)N(C1CCCC1)c1ccccc1C(=O)N2C [Compound 25, 11-cyclopentyl-2-((2-methoxy-4-(4-(4-methylpiperazin-1-yl)piperidine-1-carbonyl)phenyl)amino)-5-methyl-5H-benzo[e]pyrimido[5,4-b][1,4]diazepin-6(11H)-one] | 100 | 100 | 100 | 95 | 100
4 | CCOc1cc(C(=O)N2CCC(N3CCN(C)CC3)CC2)ccc1Nc1ncc2c(n1)N(C1CCCC1)c1ccccc1C(=O)N2C [Compound 26] | 100 | 86 | 100 | 100 | 100
